Measured values published in publication PMC6063448, “Antimicrobial activity of linear lipopeptides derived from BP100 towards plant pathogens” (PLoS ONE, 2018).

Experiments:
[1] = system: defense-related genes in tomato plants; experiment: Induction of defense gene expression of tomato plants (RT-qPCR); format: in vivo, tomato cv. Rio Grande; conditions: tomato leaves sprayed, 24 h; peptides and flg15 125 μM, JA 2.5 mM, ASM 300 mg/L; ΔΔCt relative to actin; above 2 = overexpression
Method: Seeds of tomato cv. Rio Grande plants were sown in hydroponic seed plugs (rockwool), germinated and grown under controlled greenhouse conditions (25 ± 2°C, 16 h light / 15 ± 2°C, 8 h dark, and 60% RH). Two-week old seedlings (two cotyledons) were transplanted into rockwool plugs (7.5×7.5×6.5 cm, Grodan Iberica). The experimental design consisted of three replicates of three plants per treatment. After two weeks, tomato leaves were sprayed with aqueous solutions of BP100, 9 selected derivatives and flg15 at 125 μM, jasmonic acid at 2.5 mM (Sigma-Aldrich, Sant Louis, Missouri, UE), and acybenzolar-S-methyl at 300 mg/L (Syngenta, Basel, Switzerland), until the run-off point. Water-sprayed plants were used as not treated controls. Twenty-four hours after product application leaf samples were collected and processed to extract RNA for RT-qPCR assays. Plant material was ground to a fine powder in liquid nitrogen with the Tissuelyzer II system (Qiagen). Total RNA was extracted from leaves using PureLink Plant RNA Reagent (Invitrogen, Life Technologies) according to the manufacturer’s manual. The RNA was solubilized in RNAse free water and was routinely subjected to DNAse treatment (Ambion® Turbo DNA-free™, Life Technologies) to remove any contaminant DNA. In each step, the RNA was quantified using a Nanodrop N-2000 spectrophotometer, and its integrity verified by denaturing agarose gel electrophoresis. First-strand of complementary DNA (cDNA) was generated from leave RNA using reverse transcriptase (High Capacity cDNA Reverse Transcription Kit, Invitrogen) according to the manufacturer’s manual.
To test gene defense induction in the treated tomato plants, a qPCR assay was performed. Quantitative PCR was carried out in a fluorometric thermal cycler (qPCR Quant Studio 5, Applied Biosystems) by using a Mix SYBR®Green PCR Master Mix (Applied Biosystems). The total reaction volume of this PCR reaction was 20 μL and the reaction mixture was 1 μL of each primer set at the adequate concentration, 10 μL of MixSyber Green, 6 μL of distilled water and 2 μL of cDNA. Melting curve analysis was performed after amplification to verify amplification specificity. A constitutive gene (actin gene) was used as reference control, and the following genes implicated in plant defense response were analyzed: Pathogenesis-related protein-1 (PR1), Harpin (Harp), Polyphenol oxidase (PPO), Subtilisin-like protease (Sub1), Blue copper binding-protein (BCB), Osmotin (Osm2), Acidic β-1,3 endoglucanase (GluA), Lypoxigenase (LOX), Protein inhibitor II (PinII), Dehydrin (Tas14) and Ethylene response transcription factor (ERT3). […] For each gene system, the concentration of the primer pair was optimized. The primer concentration was 100 nM for all the genes except for the GluA, Harp, PR1 and actin genes which optimized concentration was 300 nM. A calibration curve was prepared by cloning the corresponding DNA in the pSpark cloning vector (Canvax, Córdoba, Spain) according to the manufacturer instructions, which was then used to transform E. coli DH5α by standard procedures. The number of plasmid copies were quantified after purification from E. coli (QIAGEN Iberia, S. L., Madrid, Spain), and appropriate dilutions were prepared to obtain the standard curve. […] Relative quantification of gene expression was done using the ΔΔCt method. Each biological repetition treatment was analyzed in duplicate. The mean of the Ct values obtained were used to estimate the fold change value of the endogenous reference gene (actin) and the target plant defense genes.

[2] = system: Penicillium expansum EPS26; experiment: MIC, antifungal growth inhibition in microtiter plates (PDB); format: cell-based; conditions: Pe, 22°C, seven days, OD 600 nm, lowest concentration with no growth, given as interval of tested concentrations, three replicates, experiment repeated twice
Method: (§1) The following plant pathogenic fungal strains were used: Penicillium expansum EPS26 (Institut de Tecnologia Agroalimentària, Universitat de Girona, Spain) and Fusarium oxysporum f. sp. lycopersici FOL 3 race 2 (ATCC 201829, American Type Culture Collection,Virginia, EEUU). Strains were cultured on potato dextrose agar (PDA) plates (Difco). Conidia from P. expansum and microconidia from F. oxysporum were obtained from 5–7 day-old agar Potato Dextrose (PDA) cultures after growth at 25°C. Inoculum was prepared by scraping spore material from culture surfaces with a cotton swab and resuspending it in distilled water containing 0.5‰ of tween 80. The suspensions were filtered through Miracloth (Merk, Millipore) and the concentration of conidia was determined using a hemacytometer and adjusted to 10^4 conidia mL^-1 for F. oxysporum and to 10^3 conidia mL^-1 for P. expansum.
(§2) Lyophilized peptides were solubilized in sterile Milli-Q water to a final concentration of 1 mM and filter sterilized through a 0.22-μm pore filter. […] For antibacterial activity 20 μL of each dilution were mixed in a microtiter plate well with 20 μL of the corresponding suspension of the bacterial indicator, 160 μL of Trypticase Soy Broth (TSB) (BioMèrieux, France) to a total volume of 200 μL. For antifungal activity 20 μL of each stock solution were mixed in a microtiter plate well with 80 μL of the corresponding suspension of the fungal pathogen and 100 μL of double concentrated Potato Dextrose Broth (PDB) to a total volume of 200 μL containing 0.003% w/v of chloramphenicol to prevent bacterial contamination.
(§3) Three replicates for each combination of strain, compound and concentration were used. Microbial growth was determined by optical density measurement at 600 nm (Bioscreen C, Labsystem, Helsinki, Finland). For antibacterial activity microplates were incubated at 25°C with 20 s shaking before hourly absorbance measurement for 48 h. For antifungal activity microplates were incubated at 22°C with 1 min shaking before absorbance measurement that were done every two hours during seven days. The experiment was repeated twice. The MIC was taken as the lowest compound concentration with no growth at the end of the experiment.

[3] = system: Fusarium oxysporum f. sp. lycopersici FOL 3 race 2; experiment: as above; format: cell-based; conditions: Fo, 22°C, seven days, OD 600 nm, lowest concentration with no growth, given as interval of tested concentrations, three replicates, experiment repeated twice
Method: as §1, §2, §3

[4] = system: Xanthomonas axonopodis pv. vesicatoria 2133–2; experiment: MIC, growth inhibition in microtiter plates (TSB); format: cell-based; conditions: Xav, 25°C, 48 h, OD 600 nm, lowest concentration with no growth, given as interval of tested concentrations, three replicates, experiment repeated twice
Source text: (§4) The following plant pathogenic bacterial strains were used: Erwinia amylovora PMV6076 (Institut National de la Recherche Agronomique, Angers, France), Pseudomonas syringae pv. syringae EPS94 (Institut de Tecnologia Agroalimentària, Universitat de Girona, Spain), Xanthomonas axonopodis pv. vesicatoria 2133–2, Pseudomonas syringae pv. actinidiae Psa3700.1.1, Xanthomonas fragariae Xf349-9A (Instituto Valenciano de Investigaciones Agrarias, Valencia, Spain), and Xanthomonas arboricola pv. pruni CFBP5563 (Collection Française de Bactéries associées aux Plantes, Angers, France). All bacteria except for X. fragariae were stored in Luria Bertani (LB) broth supplemented with glycerol (20%) and maintained at -80°C. For X. fragariae, Medium B [46] was used instead of LB. E. amylovora, X. arboricola pv. pruni, P. syringae pv. syringae and P. syringae pv. actinidiae were scrapped from the agar media after growing for 24 h at 25°C, and X. axonopodis pv. vesicatoria and X. fragariae after growing for 48 h at 25°C. The cell material was suspended in sterile water to obtain a suspension of 10^8 CFU mL^-1.
as §2, §3

[5] = system: Xanthomonas fragariae Xf349-9A; experiment: MIC, growth inhibition in microtiter plates (TSB); format: cell-based; conditions: Xf, 25°C, 48 h, OD 600 nm, lowest concentration with no growth, given as interval of tested concentrations, three replicates, experiment repeated twice
Source text: as §4, §2, §3

[6] = system: Pseudomonas syringae pv. actinidiae Psa3700.1.1; experiment: MIC, growth inhibition in microtiter plates (TSB); format: cell-based; conditions: Psa, 25°C, 48 h, OD 600 nm, lowest concentration with no growth, given as interval of tested concentrations, three replicates, experiment repeated twice
Source text: as §4, §2, §3

[7] = system: Erwinia amylovora PMV6076; experiment: MIC, growth inhibition in microtiter plates (TSB); format: cell-based; conditions: Ea, 25°C, 48 h, OD 600 nm, lowest concentration with no growth, given as interval of tested concentrations, three replicates, experiment repeated twice
Source text: as §4, §2, §3

[8] = system: Xanthomonas arboricola pv. pruni CFBP5563; experiment: MIC, growth inhibition in microtiter plates (TSB); format: cell-based; conditions: Xap, 25°C, 48 h, OD 600 nm, lowest concentration with no growth, given as interval of tested concentrations, three replicates, experiment repeated twice
Source text: as §4, §2, §3

[9] = system: Pseudomonas syringae pv. syringae EPS94; experiment: MIC, growth inhibition in microtiter plates (TSB); format: cell-based; conditions: Pss, 25°C, 48 h, OD 600 nm, lowest concentration with no growth, given as interval of tested concentrations, three replicates, experiment repeated twice
Source text: as §4, §2, §3

| Structure (SMILES) | BCB gene expression, fold induction [1] | ERT3 gene expression, fold induction [1] | GluA gene expression, fold induction [1] | Harp gene expression, fold induction [1] | LOX gene expression, fold induction [1] | Osm2 gene expression, fold induction [1] | PPO gene expression, fold induction [1] | PR1 gene expression, fold induction [1] | PinII gene expression, fold induction [1] | Sub1 gene expression, fold induction [1] | Tas14 gene expression, fold induction [1] | MIC [2] | MIC [3] | MIC [4] | MIC [5] | MIC [6] | MIC [7] | MIC [8] | MIC [9] |
| --- | --- | --- | --- | --- | --- | --- | --- | --- | --- | --- | --- | --- | --- | --- | --- | --- | --- | --- | --- |
| CSC(=O)c1cccc2nnsc12 [ASM, acybenzolar-S-methyl, reference compound] | 12.1 | 2.9 | 5.9 | 6.3 | 3.3 | 8.7 | 2.9 | 4.8 | 0.5 | 11.6 | 10.7 | – | – | – | – | – | – | – | – |
| CCCC(=O)NCCCC[C@H](NC(C)=O)C(=O)N[C@@H](CCCCN)C(=O)N[C@@H](CC(C)C)C(=O)N[C@@H](Cc1ccccc1)C(=O)N[C@@H](CCCCN)C(=O)N[C@@H](CCCCN)C(=O)N[C@H](C(=O)N[C@@H](CC(C)C)C(=O)N[C@@H](CCCCN)C(=O)N[C@@H](Cc1ccc(O)cc1)C(=O)N[C@@H](CC(C)C)C(N)=O)[C@@H](C)CC [BP380, Ac-K(COC3H7)KLFKKILKYL-NH2] | – | – | – | – | – | – | – | – | – | – | – | 3.1 to 6.2 µM | 0.8 to 1.6 µM | 3.1 to 6.2 µM | 3.1 to 6.2 µM | 6.2 to 12.5 µM | 3.1 to 6.2 µM | 3.1 to 6.2 µM | 6.2 to 12.5 µM |
| CCCCCCCCCCCC(=O)NCCCC[C@H](NC(=O)[C@H](CCCCN)NC(=O)[C@H](Cc1ccccc1)NC(=O)[C@H](CC(C)C)NC(=O)[C@H](CCCCN)NC(=O)[C@H](CCCCN)NC(C)=O)C(=O)N[C@H](C(=O)N[C@@H](CC(C)C)C(=O)N[C@@H](CCCCN)C(=O)N[C@@H](Cc1ccc(O)cc1)C(=O)N[C@@H](CC(C)C)C(N)=O)[C@@H](C)CC [BP397, Ac-KKLFKK(COC11H23)ILKYL-NH2] | – | – | – | – | – | – | – | – | – | – | – | 12.5 to 25 µM | 6.2 to 12.5 µM | 6.2 to 12.5 µM | 1.6 to 3.1 µM | >25 µM | >25 µM | 3.1 to 6.2 µM | >25 µM |
| CCCCCC(=O)NCCCC[C@H](NC(=O)[C@H](CCCCN)NC(=O)[C@H](CC(C)C)NC(=O)[C@@H](NC(=O)[C@H](CCCCN)NC(=O)[C@H](CCCCN)NC(=O)[C@H](Cc1ccccc1)NC(=O)[C@H](CC(C)C)NC(=O)[C@H](CCCCN)NC(=O)[C@H](CCCCN)NC(C)=O)[C@@H](C)CC)C(=O)N[C@@H](CC(C)C)C(N)=O [BP377, Ac-KKLFKKILKK(COC5H11)L-NH2] | – | – | – | – | – | – | – | – | – | – | – | 3.1 to 6.2 µM | 0.8 to 1.6 µM | 6.2 to 12.5 µM | 3.1 to 6.2 µM | 3.1 to 6.2 µM | 3.1 to 6.2 µM | 3.1 to 6.2 µM | 3.1 to 6.2 µM |
| CCCCCCCCCCCC(=O)N[C@@H](CCCCN)C(=O)N[C@@H](CCCCN)C(=O)N[C@@H](CC(C)C)C(=O)N[C@@H](Cc1ccccc1)C(=O)N[C@@H](CCCCN)C(=O)N[C@@H](CCCCN)C(=O)N[C@H](C(=O)N[C@@H](CC(C)C)C(=O)N[C@@H](CCCCN)C(=O)N[C@@H](Cc1ccc(O)cc1)C(=O)N[C@@H](CC(C)C)C(N)=O)[C@@H](C)CC [BP391, C11H23CO-KKLFKKILKYL-NH2] | – | – | – | – | – | – | – | – | – | – | – | >25 µM | 12.5 to 25 µM | 6.2 to 12.5 µM | 3.1 to 6.2 µM | >25 µM | >25 µM | 6.2 to 12.5 µM | >25 µM |
| CCCC(=O)NCCCC[C@H](NC(=O)[C@H](CCCCN)NC(=O)[C@H](CCCCN)NC(=O)[C@H](Cc1ccccc1)NC(=O)[C@H](CC(C)C)NC(=O)[C@H](CCCCN)NC(=O)[C@H](CCCCN)NC(C)=O)C(=O)N[C@@H](CC(C)C)C(=O)N[C@@H](CCCCN)C(=O)N[C@@H](Cc1ccc(O)cc1)C(=O)N[C@@H](CC(C)C)C(N)=O [BP386, Ac-KKLFKKK(COC3H7)LKYL-NH2] | – | – | – | – | – | – | – | – | – | – | – | >25 µM | 12.5 to 25 µM | 12.5 to 25 µM | 12.5 to 25 µM | 6.2 to 12.5 µM | 12.5 to 25 µM | 12.5 to 25 µM | – |
| CC/C=C\C[C@H]1C(=O)CC[C@@H]1CC(=O)O [JA, jasmonic acid, reference compound] | 6.6 | 41.3 | 0.2 | 1.9 | 9.7 | 48.4 | >50 | 2.9 | >50 | 3.9 | 0.88 | – | – | – | – | – | – | – | – |
